The structures appear in SMILES notation. The source made the active and inactive calls. How the calls were made is not given here.

The target in this test is Serine/threonine-protein kinase mTOR (Homo sapiens) (UniProt P42345). The test can be described thus: binders of mTOR FRB domain, biophysical, NMR (AID 1648). Conditions: NMR binding to FRB domain, chemical shift.
Chain of Serine/threonine-protein kinase mTOR (Homo sapiens) (P42345 2015-2114): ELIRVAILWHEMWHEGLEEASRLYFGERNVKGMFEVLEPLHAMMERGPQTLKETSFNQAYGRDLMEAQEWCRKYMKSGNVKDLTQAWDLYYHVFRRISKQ
Regarding `O=c1c2ccccc2nc(-c2ccco2)n1-c1nccs1`, the Kd was > 4 mM (inactive).

On to `COc1ccccc1-c1c(C)nn2c(C)c(C(C)=O)cnc12`, for which the Kd is > 4 mM (inactive).

As to `CN1CCn2c1nc(N1CCCCC1)nc2=O`, the Kd is > 4 mM (inactive).

For `Oc1cccc2[nH]ccc12`, the Kd is > 4 mM (inactive).

As for `Cc1cc(SCC(=O)Nc2nccs2)nc(=O)[nH]1`, the Kd is > 4 mM (inactive).

For the molecule `COC(=O)c1noc(C)c1C(C)=O`, the Kd was > 4 mM (inactive).

Regarding `NCc1cccc2nsnc12`, the Kd is > 4 mM (inactive).

For `O=C1CCC(=O)N1c1cccc([N+](=O)[O-])c1`, the Kd is > 4 mM (inactive).

As to `COC(=O)C1=C(C)N(c2cccc(C(C)=O)c2)C(=O)C1`, the Kd was > 4 mM (inactive).

For the molecule `NC(=O)c1ccsc1NC(=O)c1ccccc1[N+](=O)[O-]`, the Kd was > 4 mM (inactive).

With `Cc1scc(C(=O)Nc2ccon2)c1-c1ccccc1`, the Kd is > 4 mM (inactive).

For `Cn1cc(Cl)c(C(=O)NC2CCCC2)n1`, the Kd is > 4 mM (inactive).

With `COc1ccccc1C(=O)NC1CCN(C)CC1`, the Kd is > 4 mM (inactive).

In the case of `C=C(C)[C@H]1Cc2c(ccc3c2O[C@@H]2COc4cc(OC)c(OC)cc4[C@@H]2C3=O)O1`, the Kd was > 4 mM (inactive).

For `COc1ccc(NS(=O)(=O)c2ccc(N)cc2)nn1`, the Kd was > 4 mM (inactive).

As for `CS(=O)(=O)N1CCN(C(=O)Cc2cccs2)CC1`, the Kd is > 4 mM (inactive).

In the case of `COC(=O)c1scc(C)c1N`, the Kd was > 4 mM (inactive).

With `Oc1cc2c(cc1O)C1c3ccc(O)c(O)c3OCC1(O)C2` (stereo unspecified), the Kd is > 4 mM (inactive).

As for `CCc1c(C(=O)N2CCOCC2)csc1C`, the Kd was > 4 mM (inactive).

As to `OCc1cc(F)cc2c1OCOC2`, the Kd is > 4 mM (inactive).

As to `CC(=O)O[C@H]1C[C@@H](OC(C)=O)C(C)(C)C2CC(=O)[C@]3(C)C(CC[C@@]4(C)[C@H](C(=O)O)OC(=O)C5OC543)[C@]21C` (stereo partly specified), the Kd is > 4 mM (inactive).

On to `COC(=O)c1ccc(Cl)c(NC(C)=O)c1`, for which the Kd was > 4 mM (inactive).

For `Nc1ccc(O)cn1`, the Kd is > 4 mM (inactive).

As for `COC(=O)c1c(SC)nc(-c2ccccc2)[nH]c1=O`, the Kd is > 4 mM (inactive).

Regarding `O=c1c(O)cccc2cc(O)c(O)c(O)c12`, the Kd was > 4 mM (inactive).

On to `Fc1cc2nccnc2cc1N1CCSCC1`, for which the Kd is > 4 mM (inactive).

As for `NC(=O)CSc1nnc(-c2ccncc2)o1`, the Kd was > 4 mM (inactive).

With `CCCn1cnc2sc(C(N)=O)c(C)c2c1=O`, the Kd was > 4 mM (inactive).

For `CC(=O)Nc1cccc(NC(=O)c2ccco2)c1`, the Kd is > 4 mM (inactive).

For the molecule `O=C1NC(=S)NC(=O)C1=Cc1cccs1`, the Kd was > 4 mM (inactive).

For `OCc1ccccc1CN1CCOCC1`, the Kd was > 4 mM (inactive).

Turning to `O=C(CN1C(=O)CCC1=O)c1ccccc1`, the Kd was > 4 mM (inactive).

For `OCC1CCCC1O` (stereo unspecified), the Kd was > 4 mM (inactive).

With `N#Cc1nc(-c2ccccc2Cl)oc1N1CCOCC1`, the Kd was > 4 mM (inactive).

Turning to `CN1CCN(C(=O)c2cc(-c3ccccc3)on2)CC1`, the Kd is > 4 mM (inactive).

Turning to `CC(=O)NCc1nc2ccccc2[nH]1`, the Kd is > 4 mM (inactive).

On to `O=[N+]([O-])c1cccc(-c2c[n+](=O)c3c(n2[O-])CCC3)c1`, for which the Kd is > 4 mM (inactive).

As for `CCOC(=O)c1c[nH]c2c(F)cccc2c1=O`, the Kd was > 4 mM (inactive).

Take `CC(CCC(=O)O)[C@H]1CCC2C3CC[C@@H]4C[C@H](O)CC[C@]4(C)C3CC[C@@]21C` (stereo partly specified): the Kd is > 4 mM (inactive).

Turning to `O=C(O)CCC(=O)Nc1ccccc1F`, the Kd was > 4 mM (inactive).

Take `O=C(Nc1ccc2c(c1)OCCO2)c1ccncc1`: the Kd is > 4 mM (inactive).

As to `COc1cc(C)nc(N(CCO)CCO)n1`, the Kd is > 4 mM (inactive).

For `NC(=S)N1CCC(c2ccccc2)=N1`, the Kd is > 4 mM (inactive).

As to `O=C(O)c1ccccc1C(=O)Nc1ccccc1`, the Kd was > 4 mM (inactive).

Take `COn1c(=O)c(-c2ccco2)[n+]([O-])c2ccccc21`: the Kd was > 4 mM (inactive).

For the molecule `CC(=O)NC(=S)Nc1ccc(C(C)=O)cc1`, the Kd was > 4 mM (inactive).

Turning to `COc1ccccc1-c1nc(-c2ccc(C)nc2OC)no1`, the Kd was > 4 mM (inactive).

As for `S=C(c1cccnc1)N1CCOCC1`, the Kd is > 4 mM (inactive).

As for `COc1cccc(=O)c2c(C)n(C)c(C)c12`, the Kd is > 4 mM (inactive).

As for `Cc1ccc(CN2CCNC(=O)C2CC(=O)O)o1` (stereo unspecified), the Kd is > 4 mM (inactive).

Regarding `Cn1ncc(C(=O)O)c1-c1ccccc1`, the Kd was > 4 mM (inactive).

Regarding `COc1ccc2c(c1)c1n[nH]c(=S)nc1n2C`, the Kd is > 4 mM (inactive).

Regarding `CN1CCC(NC(=O)c2cnccn2)CC1`, the Kd was > 4 mM (inactive).

For the molecule `COC(=O)Cc1cccc(OC)c1`, the Kd was > 4 mM (inactive).

For the molecule `CC(=O)Oc1cc2c(c(C)c1OC(C)=O)CC=C1[C@@]2(C)CC[C@@]2(C)C3C[C@](C)(C(=O)O)CC[C@]3(C)CC[C@]12C` (stereo partly specified), the Kd is > 4 mM (inactive).

Consider `O=C(c1nc2ccccc2s1)N1CCSCC1`, for which the Kd is > 4 mM (inactive).

As for `Nc1ncnc2c1ncn2CCOc1ccccc1`, the Kd was > 4 mM (inactive).

Turning to `NC(=O)CCn1c(=O)oc2ccccc21`, the Kd was > 4 mM (inactive).

With `O=C(CSc1nc2ccccc2[nH]1)N1CCCCC1`, the Kd was > 4 mM (inactive).

On to `COc1nc(C)ccc1-c1noc(-c2ccncc2)n1`, for which the Kd is > 4 mM (inactive).

As for `NC(=O)Cn1nc(-c2ccco2)ccc1=O`, the Kd was > 4 mM (inactive).

Consider `O=C(c1cc(-c2ccccc2)on1)N1CCCC1`, for which the Kd is > 4 mM (inactive).

For the molecule `C[N+](C)(C)CC(=O)[O-]`, the Kd is > 4 mM (inactive).

For `Cc1ccc(C(=O)Nc2ccncc2)o1`, the Kd is > 4 mM (inactive).

With `COc1ccc(-c2c(OC)c3c(OC)c4c(cc3oc2=O)OC(C)(C)C=C4)cc1`, the Kd is > 4 mM (inactive).

Regarding `COc1cc(NC(=O)c2ccccc2)c(C)cc1N`, the Kd is > 4 mM (inactive).

For the molecule `Cc1nc2ccccc2c(=O)n1N1C(=O)CCCC1=O`, the Kd was > 4 mM (inactive).

In the case of `O=C(O)CCNc1n[nH]c(=O)[nH]c1=O`, the Kd is > 4 mM (inactive).

`Oc1ccc(C2SCCS2)cc1`: the Kd is > 4 mM (inactive).

As for `O=C(O)CCC1=C2c3ccccc3CCN2C(=O)CC1`, the Kd is > 4 mM (inactive).

As for `Cn1ccc(NC(=S)Nc2cccc([N+](=O)[O-])c2)n1`, the Kd was > 4 mM (inactive).

Take `Cn1nc(C(=O)Nc2cccnc2)cc1Cl`: the Kd was > 4 mM (inactive).

Take `N#CC(O[C@@H]1O[C@H](CO[C@@H]2O[C@H](CO)[C@@H](O)[C@H](O)[C@H]2O)[C@@H](O)[C@H](O)[C@H]1O)c1ccccc1` (stereo partly specified): the Kd is > 4 mM (inactive).

With `CC(C)=CCC[C@](C)(O)C1CC=C(C)CC1` (stereo partly specified), the Kd was > 4 mM (inactive).

Regarding `C[C@H]1CCCC(=O)CCC/C=C/c2cc(O)cc(O)c2C(=O)O1`, the Kd is > 4 mM (inactive).

As for `CCOC(=O)c1c(-c2ccncc2)csc1N`, the Kd is > 4 mM (inactive).

As to `Cn1ncc(C(=O)NC2CCCCC2)c1Cl`, the Kd was > 4 mM (inactive).

For `C/C=C(/C)C(=O)O[C@H]1CC[C@@]2(C)[C@@H]3CC[C@H]4[C@]5(O)C[C@H](O)[C@@]6(O)[C@@H](CN7C[C@@H](C)CC[C@H]7[C@@]6(C)O)[C@]5(O)C[C@@]42OC13O`, the Kd was > 4 mM (inactive).

On to `Clc1ccc(-c2noc(CN3CCCC3)n2)cc1`, for which the Kd is > 4 mM (inactive).

As to `NC(=O)CSc1nc2[nH]ncc2c(=O)[nH]1`, the Kd is > 4 mM (inactive).

Take `CC(=O)O[C@@H]1CC2C(C)(C)[C@H](O)CC[C@]2(C)C2CC[C@@]3(C)[C@H](c4ccoc4)OC(=O)C4OC43[C@@]21C` (stereo partly specified): the Kd is > 4 mM (inactive).

Consider `O=C(O)C(Cc1cnc[nH]1)N1C(=O)c2ccccc2C1=O` (stereo unspecified), for which the Kd is > 4 mM (inactive).

As to `Nc1ccc(Cc2ccc(N)cc2)cc1`, the Kd was > 4 mM (inactive).

On to `CC(C)(C)NC(=O)N1CCC(C(N)=O)CC1`, for which the Kd was > 4 mM (inactive).

For the molecule `O=C(Nc1cccnc1)Nc1ccc2c(c1)OCO2`, the Kd is > 4 mM (inactive).

Consider `CC1=NN(c2ccc(C)cc2)C(=O)C1`, for which the Kd is > 4 mM (inactive).

Turning to `O=S(=O)(Cc1ccccc1Cl)Nc1ccccn1`, the Kd is > 4 mM (inactive).

With `CN(c1ccc(C(=O)N2CCCCC2)cc1)S(C)(=O)=O`, the Kd is > 4 mM (inactive).

For `COc1ccc(N/C(N)=N\c2nc(C)cc(C)n2)cc1`, the Kd is > 4 mM (inactive).

Take `Cc1c(C)[n+](=O)c(-c2cccs2)c(C)n1[O-]`: the Kd is > 4 mM (inactive).

Consider `Cc1n[nH]c(=S)n(/N=C/c2ccccc2)c1=O`, for which the Kd was > 4 mM (inactive).

As to `O=c1[nH]c2ccccc2c(=O)n1CCCO`, the Kd was > 4 mM (inactive).

`CCc1cc(=O)[nH]c(SCC(=O)NCCOC)n1`: the Kd was > 4 mM (inactive).

Take `O=C(CSc1cccc2cccnc12)N1CCCC1`: the Kd is > 4 mM (inactive).

For the molecule `CN(Cc1nc2ccccc2n1C)C(=O)c1cccs1`, the Kd was > 4 mM (inactive).

For the molecule `Cn1c(SCCC(=O)O)nnc1-c1cccnc1`, the Kd is > 4 mM (inactive).

With `CC1=NCCc2c1[nH]c1cc(O)ccc21`, the Kd was > 4 mM (inactive).

`COc1ccccc1Nc1nncc(=O)[nH]1`: the Kd was > 4 mM (inactive).

As for `C=C1C(=O)O[C@@H]2C3OC3(C)CC/C=C(\C)CC[C@@H]12` (stereo partly specified), the Kd is > 4 mM (inactive).

Consider `Cc1cccc(N2C(=O)CCC2=O)n1`, for which the Kd is > 4 mM (inactive).

As for `O=C(O)c1cccc2nsnc12`, the Kd is > 4 mM (inactive).

The term Kd denotes the equilibrium constant for the complex coming apart.

These data come from PubChem BioAssay AID1648 (Sanford-Burnham Center for Chemical Genomics, 2009).
